From PubChem BioAssay (NCI)
Where “and” joins values, the source holds several entries; their conditions need not be identical. Equal entries are not always repeated.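 The compound was tested at five concentrations on cells cultured in 96-well plates, with a 48-hour exposure period. Abbreviation: GI50, concentration required for 50% inhibition of growth. TGI: total growth inhibition.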

How the values were obtained:
Experiment in all cases: inhibition of tumour cell growth, NCI panel, 48 h
HS 578T breast = system: HS 578T breast
K-562 leukemia = system: K-562 leukemia
KM12 colon = system: KM12 colon
MDA-MB-435 = system: MDA-MB-435
OVCAR-5 ovarian = system: OVCAR-5 ovarian
SF-268 CNS = system: SF-268 CNS
SK-MEL-28 melanoma = system: SK-MEL-28 melanoma
SW-620 colon = system: SW-620 colon
UACC-257 melanoma = system: UACC-257 melanoma
COLO 205 colon = system: COLO 205 colon

| SMILES | TGI (HS 578T breast) | TGI (K-562 leukemia) | TGI (KM12 colon) | TGI (MDA-MB-435) | TGI (OVCAR-5 ovarian) | TGI (SF-268 CNS) | TGI (SK-MEL-28 melanoma) | TGI (SW-620 colon) | TGI (UACC-257 melanoma) | TGI (COLO 205 colon) | GI50 (COLO 205 colon) | GI50 (HS 578T breast) | GI50 (KM12 colon) | GI50 (MDA-MB-435) | GI50 (OVCAR-5 ovarian) | GI50 (SF-268 CNS) | GI50 (SK-MEL-28 melanoma) | GI50 (SW-620 colon) | GI50 (UACC-257 melanoma) |
| --- | --- | --- | --- | --- | --- | --- | --- | --- | --- | --- | --- | --- | --- | --- | --- | --- | --- | --- | --- |
| C=CCC1(O)c2cccc(O)c2C(=O)c2cccc(O)c21 (stereo unspecified) | 41.8 µM | > 100 µM | 85 µM | 50.8 µM | > 100 µM | 85.4 µM | 84.7 µM | > 100 µM | 38.7 µM | – | – | – | – | – | – | – | – | – | – |
| COc1ccc(S(=O)Cc2cc(OC)ccc2OC)cc1 (stereo unspecified) | – | > 100 µM | > 100 µM | > 100 µM | > 100 µM | > 100 µM | > 100 µM | > 100 µM | > 100 µM | > 100 µM | – | – | – | – | – | – | – | – | – |
| CSc1nc(-c2cc3c(c(SC)n2)CCC3)cc2c1CCC2 | – | > 100 µM | > 100 µM | > 100 µM | > 100 µM | > 100 µM | > 100 µM | > 100 µM | > 100 µM | > 100 µM | – | – | – | – | – | – | – | – | – |
| C/C(=C1/N=C(c2cc([N+](=O)[O-])ccc2Cl)N(C2=CC=C(Cl)CC2)C1=O)c1cc2ccccc2oc1=O | – | > 100 µM | > 100 µM | – | > 100 µM | > 100 µM | > 100 µM | > 100 µM | > 100 µM | > 100 µM | – | – | – | – | – | – | – | – | – |
| O=C(/C=C/c1ccc(Cl)c(Cl)c1)CCN1CCN(CCC(=O)/C=C/c2ccc(Cl)c(Cl)c2)CC1 | – | > 100 µM | 40.6 µM | 55.1 µM | 39.9 µM | > 100 µM | 46.3 µM | 52.1 µM | > 100 µM | 70.8 µM | – | – | – | – | – | – | – | – | – |
| COc1ccccc1/C=C1/Sc2scc(CC(=O)Nc3ccccc3)[n+]2C1=O | > 100 µM | – | > 100 µM | > 100 µM | > 100 µM | > 100 µM | > 100 µM | > 100 µM | 80.4 µM | 65.4 µM | – | – | – | – | – | – | – | – | – |
| CCCCN(CCCC)c1ccc(N=Nc2ccc(S(=O)(=O)O)cc2)cc1 | – | > 100 µM | 32.8 µM | > 100 µM | > 100 µM | > 100 µM | > 100 µM | > 100 µM | > 100 µM | 37.8 µM | – | – | – | – | – | – | – | – | – |
| O=C(/C(Cl)=C/c1ccccc1)c1ccccc1 | 15 µM | > 26 µM | 14.9 µM | 9.52 µM | 19.8 µM | 21.9 µM | 6.06 µM | – | 19.3 µM | – | – | – | – | – | – | – | – | – | – |
| Cc1cc2nc3c(C(O)CO)nn(-c4ccccc4)c3nc2cc1C (stereo unspecified) | 70.9 µM | 59.3 µM | 33.4 µM | 47.9 µM | 44.9 µM | 63.3 µM | 42 µM | 55.4 µM | 48.1 µM | – | – | – | – | – | – | – | – | – | – |
| C[C@@H]1CCN(C(=O)CC#N)C[C@@H]1N(C)c1ncnc2[nH]ccc12 | > 100 µM | – | > 100 µM | > 100 µM | > 100 µM | > 100 µM | > 100 µM | > 100 µM | > 100 µM | > 100 µM | > 100 µM | 30.4 µM | 34 µM | > 100 µM | 27.4 µM | 73.1 µM | 62.6 µM | > 100 µM | > 100 µM |
| Cc1ccc(NNc2cc(=O)[nH]c(=O)[nH]2)cc1Cl | > 100 µM | > 100 µM | > 100 µM | – | > 100 µM | > 100 µM | 31.7 µM | 28.2 µM | 32 µM | 30.6 µM | – | – | – | – | – | – | – | – | – |
| C/C=C/OC1C(C2COC(C)(C)O2)OC2OC(C)(C)OC21 (stereo unspecified) | > 100 µM | > 100 µM | – | > 100 µM | > 100 µM | > 100 µM | > 100 µM | > 100 µM | > 100 µM | – | – | – | – | – | – | – | – | – | – |
| Cc1ccc(-c2c(C#N)c(S)n(NS(=O)(=O)c3ccccc3)c(=O)c2C#N)cc1 | – | > 100 µM | 77.6 µM | 78.9 µM | > 100 µM | – | > 100 µM | 70 µM | > 100 µM | > 100 µM | – | – | – | – | – | – | – | – | – |
| COc1ccc(/C=N/n2c(C)n[nH]c2=O)cc1 | – | > 100 µM | > 100 µM | > 100 µM | > 100 µM | > 100 µM | > 100 µM | > 100 µM | > 100 µM | > 100 µM | – | – | – | – | – | – | – | – | – |
| CCOC(=O)c1ccc(Nc2nc3ccc(C(F)(F)F)cc3nc2-c2ccccc2)cc1 | > 100 µM | > 100 µM | > 100 µM | > 100 µM | > 100 µM | > 100 µM | > 100 µM | > 100 µM | > 100 µM | – | – | – | – | – | – | – | – | – | – |
| CCOC(=O)/C=C/[C@H](O[Si](c1ccccc1)(c1ccccc1)c1ccccc1)C(C)(C)C | > 31.6 µM | > 31.6 µM | > 31.6 µM | > 31.6 µM | – | > 31.6 µM | – | > 31.6 µM | > 31.6 µM | > 31.6 µM | – | – | – | – | – | – | – | – | – |
| O=[N+]([O-])c1cccc2nc3ccccc3c(NCCNCCO)c12 | 0.111 µM | 0.0448 µM | 0.0277 µM and 0.0202 µM | 0.0278 µM and 0.014 µM | 0.088 µM and 0.0672 µM | – | 0.177 µM and 0.202 µM | – | 0.034 µM and 0.0325 µM | 0.0106 µM and 0.0213 µM | – | – | – | – | – | – | 0.0239 µM | – | 0.0126 µM |
| C/C(=N/NC(=S)N(Cc1ccccn1)Cc1ccccn1)c1cnccn1 | 55.7 µM | > 100 µM | 19.7 µM | 35.6 µM | 32.6 µM | 14 µM | > 61.8 µM | 49.2 µM | 8.61 µM | – | – | – | – | – | – | – | – | – | – |
| COc1ccc(NC(C)=O)c(C(=O)CCNC(C)=O)c1 | > 100 µM | – | > 100 µM | > 100 µM | > 100 µM | > 100 µM | – | > 100 µM | > 100 µM | > 100 µM | – | – | – | – | – | – | – | – | – |
| Cn1c2ccccc2n2c3ccccc3c(=S)c(C#N)c12 | > 100 µM | > 100 µM | > 100 µM | > 100 µM | > 100 µM | > 100 µM | > 100 µM | > 100 µM | > 100 µM | – | – | – | – | – | – | – | – | – | – |
| CC(C)(C)OC(=O)/C=C/C(=O)O/C=C/[N+](=O)[O-] | > 100 µM | > 100 µM | > 100 µM | > 100 µM | > 100 µM | > 100 µM | – | > 100 µM | > 100 µM | > 100 µM | – | – | – | – | – | – | – | – | – |
| FC(F)(F)C1(C(F)(F)F)OC(Cl)(Cl)C(Cl)(Cl)O1 | > 10 µM | – | > 10 µM | > 10 µM | > 10 µM | > 10 µM | > 10 µM | > 10 µM | > 10 µM | > 10 µM | – | – | – | – | – | – | – | – | – |
| Cc1cc(S(N)(=O)=O)c(S/C(=N\Nc2ccc([N+](=O)[O-])cc2)c2ccc(Cl)cc2)cc1Cl | > 100 µM | > 100 µM | 4.15 µM | 6.88 µM | – | 6.58 µM | 4.91 µM | > 100 µM | 8.7 µM | > 100 µM | – | – | – | – | – | – | – | – | – |
